This passage reports IC50 results from patent publication US20050250818A1, “Ortho substituted aryl or heteroaryl amide compounds” (Pfizer Inc, priority 2004, published 2005).

This experiment addresses T1, human EP4 receptors (Homo sapiens, UniProt P35408).
T1 construct: expressed in transfected cells
The experiment can be described thus: cAMP assay in human EP4 transfectant. Type of experiment: cell-based. The following applies: HEK293 cells expressing human EP4 receptors; 1 nM PGE2, 0.2 mM IBMX, 37° C. for 10 min. Here is the method:
cAMP Assay in Human EP4 Transfectant HEK293 cells expressing human EP4 receptors (hEP4 cells) are maintained in DMEM containing 10% FBS and 500 μg/ml geneticin. For harvesting hEP4 cells, culture medium is aspirated and cells in 75 cm^2 flask are washed with 10 ml of phosphate buffered saline (PBS). Another 10 ml of PBS is added to the cells and incubated for 20 min at room temperature. Human EP4 cells are harvested by pipetting and centrifuged at 300×g for 4 min. Cells are resuspended in DMEM without neutral red at a density of 7×10^5 cells/ml containing 0.2 mM IBMX (PDE inhibitor), 1 nM PGE2 and test compounds in PCR-tubes, and incubated at 37° C. for 10 min. The reaction is stopped by heating at 100° C. for 10 min with thermal cycler. Concentration of cAMP in reaction mixtures is determined with SPA cAMP Kit (Amersham) or cAMP Screen™ (Applied Biosystems) according to the manufacture's instruction. Reference: Eur. J. Pharmacol. 340 (1997) 227-241 cAMP assay in human EP4 transfectant were conducted using the method described above. IC50: the concentration of the individual compound required to reduce the amount of ligand by 50%.
(In general: Cyclic AMP is a second messenger, typically raised through Gs and lowered through Gi signalling.)

T1 sequence (P35408 whole entry): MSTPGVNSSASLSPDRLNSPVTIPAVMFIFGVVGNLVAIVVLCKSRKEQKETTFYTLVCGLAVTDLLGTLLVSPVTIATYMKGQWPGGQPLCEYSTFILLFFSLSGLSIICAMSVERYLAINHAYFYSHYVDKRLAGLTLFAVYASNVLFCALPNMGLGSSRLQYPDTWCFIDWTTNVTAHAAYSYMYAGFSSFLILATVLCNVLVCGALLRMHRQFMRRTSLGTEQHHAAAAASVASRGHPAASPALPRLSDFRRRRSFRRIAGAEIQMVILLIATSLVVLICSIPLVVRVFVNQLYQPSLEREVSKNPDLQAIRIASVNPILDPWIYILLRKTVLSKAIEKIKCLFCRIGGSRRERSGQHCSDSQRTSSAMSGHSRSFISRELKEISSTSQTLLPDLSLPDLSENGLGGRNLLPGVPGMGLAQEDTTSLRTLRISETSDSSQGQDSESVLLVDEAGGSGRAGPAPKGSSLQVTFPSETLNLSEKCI

In turn, `C[C@H](NC(=O)c1cc(Cl)ccc1OCc1cc(F)cc(F)c1)c1ccc(C(=O)O)cc1` [EXAMPLE 37, 4-[(1S)-1-({5-CHLORO-2-[(3,5-DIFLUOROBENZYL)OXY]BENZOYL}AMINO)ETHYL]BENZOIC ACID] registered a concentration for half-maximal inhibition (IC50) of 78 nM.

Take `C[C@H](NC(=O)c1cc(Cl)ccc1OCc1ccccc1)c1ccc(C(=O)O)cc1` [EXAMPLE 38, 4-((1S)-1-{[2-(BENZYLOXY)-5-CHLOROBENZOYL]AMINO}ETHYL)BENZOIC ACID]: the IC50 was found to be 75 nM. As for `C[C@H](NC(=O)c1cc(Cl)cnc1OCc1ccccc1Cl)c1ccc(C(=O)O)cc1` [EXAMPLE 39, 4-{(1S)-1-[({5-CHLORO-2-[(2-CHLOROBENZYL)OXY]PYRIDIN-3-YL}CARBONYL)AMINO]ETHYL}BENZOIC ACID], the IC50 was 76 nM. Under `C[C@H](NC(=O)c1cc(Cl)cnc1OCc1ccc(Cl)cc1)c1ccc(C(=O)O)cc1` [EXAMPLE 40, 4-{(1S)-1-[({5-CHLORO-2-[(4-CHLOROBENZYL)OXY]PYRIDIN-3-YL}CARBONYL)AMINO]ETHYL}BENZOIC ACID] stands 72 nM. The molecule `C[C@H](NC(=O)c1cc(Cl)ccc1OCc1ccccc1C#N)c1ccc(C(=O)O)cc1` [EXAMPLE 41, 4-[(1S)-1-({5-CHLORO-2-[(2-CYANOBENZYL)OXY]BENZOYL}AMINO)ETHYL]BENZOIC ACID] showed an IC50 of 39 nM. `C[C@H](NC(=O)c1cc(Cl)ccc1OCCC1CCOCC1)c1ccc(C(=O)O)cc1` [EXAMPLE 42, 4-[(1S)-1-({5-CHLORO-2-[2-(TETRAHYDRO-2H-PYRAN-4-YL)ETHOXY]BENZOYL}AMINO)ETHYL]BENZOIC ACID] displayed an IC50 of 467 nM. Next, `C[C@H](NC(=O)c1cc(Cl)ccc1OCc1cccc(F)c1)c1ccc(C(=O)O)cc1` [EXAMPLE 43, 4-[(1S)-1-({5-CHLORO-2-[(3-FLUOROBENZYL)OXY]BENZOYL}AMINO)ETHYL]BENZOIC ACID]: 140 nM; `Cc1cc(COc2ccc(Cl)cc2C(=O)N[C@@H](C)c2ccc(C(=O)O)cc2)no1` [EXAMPLE 44, 4-[(1S)-1-({5-CHLORO-2-[(5-METHYLISOXAZOL-3-YL)METHOXY]BENZOYL}AMINO)ETHYL]BENZOIC ACID]: 130 nM.

Molecule `C[C@H](NC(=O)c1cc(Cl)ccc1OCc1ccc(Cl)cc1F)c1ccc(C(=O)O)cc1` [EXAMPLE 45, 4-[(1S)-1-({5-CHLORO-2-[(4-CHLORO-2-FLUOROBENZYL)OXY]BENZOYL}AMINO)ETHYL]BENZOIC ACID] showed a half-maximal inhibitory concentration (IC50) of 65 nM. As for `C[C@H](NC(=O)c1cc(Cl)ccc1OCc1ccc(F)cc1Cl)c1ccc(C(=O)O)cc1` [EXAMPLE 46, 4-[(1S)-1-({5-CHLORO-2-[(2-CHLORO-4-FLUOROBENZYL)OXY]BENZOYL}AMINO)ETHYL]BENZOIC ACID], the IC50 turned out to be 55 nM.

`C[C@H](NC(=O)c1cc(Cl)ccc1OCc1ncccc1Cl)c1ccc(C(=O)O)cc1` [EXAMPLE 47, 4-[(1S)-1-({5-CHLORO-2-[(3-CHLOROPYRIDIN-2-YL)METHOXY]BENZOYL}AMINO)ETHYL]BENZOIC ACID] showed an IC50 of 480 nM. The molecule `C[C@H](NC(=O)c1cc(Cl)cnc1N(C)Cc1ccccc1Cl)c1ccc(C(=O)O)cc1` [EXAMPLE 48, 4-{(1S)-1-[({5-CHLORO-2-[(2-CHLOROBENZYL)(METHYL)AMINO]PYRIDIN-3-YL}CARBONYL)AMINO]ETHYL}BENZOIC ACID] showed a 50% inhibitory concentration (IC50) of 100 nM. For `C[C@H](NC(=O)c1cc(Cl)ccc1OCC1CCCO1)c1ccc(C(=O)O)cc1` (stereo partly drawn) [EXAMPLE 49, 4-((1S)-1-{[5-CHLORO-2-(TETRAHYDROFURAN-2-YLMETHOXY)BENZOYL]AMINO}ETHYL)BENZOIC ACID], 360 nM corresponded to half-maximal inhibition (IC50).

In turn, `C[C@H](NC(=O)c1cc(Cl)cnc1N(C)Cc1ccccc1F)c1ccc(C(=O)O)cc1` [EXAMPLE 50, 4-{(1S)-1-[({5-CHLORO-2-[(2-FLUOROBENZYL)(METHYL)AMINO]PYRIDIN-3-YL}CARBONYL)AMINO]ETHYL}BENZOIC ACID] showed a 50% inhibitory concentration (IC50) of 120 nM. Turning to `C[C@H](NC(=O)c1cc(Cl)cnc1N(C)Cc1ccc(Cl)cc1)c1ccc(C(=O)O)cc1` [EXAMPLE 51, 4-{(1S)-1-[({5-CHLORO-2-[(4-CHLOROBENZYL)(METHYL)AMINO]PYRIDIN-3-YL}CARBONYL)AMINO]ETHYL}BENZOIC ACID], the IC50 stood at 25 nM. `C[C@H](NC(=O)c1cc(Cl)cnc1N(C)Cc1cccc(Cl)c1)c1ccc(C(=O)O)cc1` [EXAMPLE 52, 4-{(1S)-1-[({5-CHLORO-2-[(3-CHLOROBENZYL)(METHYL)AMINO]PYRIDIN-3-YL}CARBONYL)AMINO]ETHYL}BENZOIC ACID] registered an IC50 of 65 nM. Under `C[C@H](NC(=O)c1cc(Cl)cnc1N(C)Cc1cccc(F)c1)c1ccc(C(=O)O)cc1` [EXAMPLE 53, 4-{(1S)-1-[({5-CHLORO-2-[(3-FLUOROBENZYL)(METHYL)AMINO]PYRIDIN-3-YL}CARBONYL)AMINO]ETHYL}BENZOIC ACID] stands 180 nM; under `C[C@H](NC(=O)c1cc(Cl)cnc1N(C)Cc1ccc(F)cc1)c1ccc(C(=O)O)cc1` [EXAMPLE 54, 4-{(1S)-1-[({5-CHLORO-2-[(4-FLUOROBENZYL)(METHYL)AMINO]PYRIDIN-3-YL}CARBONYL)AMINO]ETHYL}BENZOIC ACID], 110 nM.

One may read the IC50 as the concentration that gives 50% inhibition. A higher IC50 goes with weaker potency in that assay.
